Test results published in patent publication US6613317B1, “Volatile attractants for diabrotica species” (priority 1988, dated 2003).
Marks after values point to notes of the source that are not given here.

Tests used:
[1] = system: northern corn rootworm (NCR); experiment: Sticky trap attraction in corn, phenylethanol analogues (Example 6); type: in vivo, Diabrotica barberi; conditions: four replicates; for Mean number of NCR per trap (± standard deviation): Table 20, 100 mg per trap, 24 hour
Procedure: (§1) Test chemicals (purchased from Aldrich Chemical Co.; Milwaukee, Wis.) were applied by capillary micropipettes to cotton dental wicks that were attached to tops of 1.0 liter cylindrical paper cartons covered with TangleTrap™, Grand Rapids, Mich. The trapping techniques used were as previously described in Example 1. Unless otherwise indicated, all treatments were made at a dosage of 100 mg or 100 μL of attractant per trap. Control traps had untreated wicks. Four replicates of treated and untreated traps were positioned randomly 10 meters apart on top of 1 m high posts along the edges of 25-50 ha. fields of hybrid corn (Zea mays), infested with adult NCR, SCR, and WCR beetles. Several experiments detailed in the Tables were made in a 0.4 ha plot of sweet corn (Illini X-tra Sweet).
(§2) Attraction of Diabrotica species adults of the sticky traps was measured by the mean number of beetles caught after 1 day (ca. 24 hours) exposure. The significance of the treatments was determined by analysis of variance and the individual means were separated by Duncan's multiple range test (Statistical Package for the Social Sciences, Nie, et al., 2nd. ed. McGraw-Hill, New York (1975). The data was logarithmically transformed for statistical analysis. Means and standard deviations are presented for the untransformed data. Significance levels were set at P=0.05 for all statistical analyses.

[2] = system: western corn rootworm (WCR) adults; experiment: Sticky trap attraction in corn, estragole analogues (Example 3); type: in vivo, Diabrotica virgifera virgifera; conditions: 100 mg per trap; for Mean number of WCR adults per sticky trap (±standard deviation) after 24 hours / Mean number of WCR per sticky trap (±standard deviation) after 24 hours: n = 4
Procedure: as §1, with “chemicals” for “chemicals (purchased from Aldrich Chemical Co.; Milwaukee, Wis.)”, “Cinnamyl alcohol, 4-methoxycinnamaldehyde, cinnamyl acetate, and 4-(4′methoxyphenyl)-3-butene-2-one which are solids at ambient temperature were prepared as standard w/v solutions in acetone prior to dosing the cotton wicks. All” for “Unless otherwise indicated, all”
as §2

[3] = system: southern corn rootworm (SCR) adults; experiment: as above; type: in vivo, Diabrotica undecimpunctata howardi; conditions: 100 mg per trap, n = 4
Procedure: as §1, with “chemicals” for “chemicals (purchased from Aldrich Chemical Co.; Milwaukee, Wis.)”, “Cinnamyl alcohol, 4-methoxycinnamaldehyde, cinnamyl acetate, and 4-(4′methoxyphenyl)-3-butene-2-one which are solids at ambient temperature were prepared as standard w/v solutions in acetone prior to dosing the cotton wicks. All” for “Unless otherwise indicated, all”
as §2

[4] = system: western corn rootworm (WCR) adults; experiment: Sticky trap attraction in sweet corn plots (Example 1); type: in vivo, Diabrotica virgifera virgifera; conditions: August first year, single compounds 100 mg per trap
Procedure: (§3) The attraction of Diabrotica species to single-component and multicomponent lures was evaluated in corn fields. The field experiments on attraction of SCR and WCR adults were conducted in 0.405-ha (1-acre) plots of “Illini Xtra Sweet” corn grown on the University of Illinois South Farms at Urbana, Ill., over a two year period. Most of the tests were conducted in August to correspond with the peak silk-feeding and oviposition periods of corn rootworm adults in central Illinois. In both years, the sweet corn plot was adjacent to a 0.405-ha trap crop of C. maxima cultivar “Blue Hubbard”, to provide high densitites of SCR and WCR adults in the corn plots (Howe, et al., Environ. Entomol., 5:745-751 (1976), Lampman, et al., J. Chem. Ecol., 13:959-975 (1987).
(§4) Attraction of Diabrotica species to volatile compounds was measured by the average number of beetles cought during a 24-h period on 1.0-liter cylindrical paper cartons (15.2 cm high, 27.9 cm circumference) which were evenly coated with clear insect adhesive, TangleTrap™ (Tanglefood Co., Grand Rapids, Mich.) The candidate attractants were applied by capillary micropiettes to cotton dental wicks (13 mm long by 6 mm diameter) that were previously impregnated with mineral oil to prolong volatilization. The chemicals were purchased from Aldrich Chemical Co., (Milwaukee, Wis.) and assayed by gas chromatography as >97% pure. Indole, a solid at ambient temperatures (m.p. 52-54° C.), was dissolved in glass-distilled acetone before dosing the cotton wicks. For dosage-acticity tests, the various components were mixed in equal quantities by weight and diluted to the appropriate dosage with acetone. Treated and untreated (control) wicks were attached to the top of the paper cartons with TangleTrap™ and the inverted traps were placed on 1-m-high posts between the sweet corn rows. Four replicates of each treatment and a control were conducted in a randomized complete block desgin. The sticky traps within a block (ca. 50-m row of corn) were 5-10 m apart (depending on the number of treatments in a particular test) and the blocks were 3 m apart. The traps were baited and placed in the field between 1000 and 1300 hours and beetle counts were taken after 24 h. The significance of treatments was determined by analysis of variance and the individual means were separated by Duncan's multiple range test (Statistical Package for Social Sciences (SPSS) (Nie, et al., SPSS: statistical package for the social sciences, 2nd ed. McGraw-Hill, N.Y. (1975)). Student's t test was used for comparisons of two means (Sokal, et al., Biometry, Freeman, San Francisco (1969). Significance levels were set at P=0.05 at all statistical analyses.
(§5) The initial field test in August of the first year evaluated the response of SCR and WCR adults of a mixture of veratrole (V), indole (I), phenylacetaldehyde (P), trans-anethole (A), and eugenol (E) (=VIPAE mixture), as well as to the individual components. Each component in the VIPAE mixture was present at a dosage of 20 mg per trap and was compared with the individual components at 100 mg per trap. The response of SCR and WCR adults to a range of VIPAE doses, 1-300 mg, was conducted on the following day. Fifty SCR adults were removed from each 100-mg VIPAE trap, and returned to the laboratory for sex determination. Additional analyses in August evaluated the reduction in trap catches produced by the sequential removal of the individual components from the VIPAE lure. After the primary components of the initial lure were determined, a modified multicomponent lure consisting of veratrole, indole, and phenylacetaldehyde (=VIP mixture) was compared with its individual components to determine whether the attraction of SCR adults was the result of interactive or additive factors. The attraction and synergistic response of SCR adults of the VIP mixture was verified by tests conducted in August of the following year. […]

[5] = system: southern corn rootworm (SCR) adults; experiment: as above; type: in vivo, Diabrotica undecimpunctata howardi; conditions: August first year, single compounds 100 mg per trap
Procedure: as §3, §4, §5

[6] = South Farms, 24 h, mixture 20 mg of each component, n = 4

NCCc1ccccc1 [phenylethylamine]
Mean number of NCR per trap (± standard deviation) [1]: 206.7 ± 32.3d per trap | Mean number (control subtracted) of NCR per trap ([1]; day 1 after single 100 mg dosage on cotton wick): 85.9 per trap | Mean number (control subtracted) of NCR per trap ([1]; day 2 after single 100 mg dosage on cotton wick): 125.3 per trap | Mean number (control subtracted) of NCR per trap ([1]; day 3 after single 100 mg dosage on cotton wick): 39.4 per trap | Mean number (control subtracted) of NCR per trap ([1]; day 4 after single 100 mg dosage on cotton wick): 27.5 per trap | Mean number (control subtracted) of NCR per trap ([1]; day 5 after single 100 mg dosage on cotton wick): 155.4 per trap | Mean number (control subtracted) of NCR per trap ([1]; day 6 after single 100 mg dosage on cotton wick): 44.2 per trap | Mean number (control subtracted) of NCR per trap ([1]; day 7 after single 100 mg dosage on cotton wick): 38.4 per trap | Mean number (control subtracted) of NCR per trap ([1]; day 8 after single 100 mg dosage on cotton wick): 17.5 per trap | Mean number (control subtracted) of NCR per trap ([1]; day 11 after single 100 mg dosage on cotton wick): 3.8 per trap

C=CCc1ccccc1 [VIII, allylbenzene]
Mean number of WCR adults per sticky trap (±standard deviation) after 24 hours ([2]; August 4 second year): 10.0 ± 1.4^a per sticky trap | Mean number of WCR adults per sticky trap (±standard deviation) after 24 hours ([2]; August 5 first year): 1.0 ± 0.8^a per sticky trap | Mean number of SCR adults per sticky trap (±standard deviation) after 24 hours ([3]; August 4 second year): 12.4 ± 7.2^b per sticky trap | Mean number of SCR adults per sticky trap (±standard deviation) after 24 hours ([3]; August 5 first year): 24.7 ± 16.9^a per sticky trap

NCCCCc1ccccc1 [phenylbutylamine]
Mean number of NCR per trap (± standard deviation) [1]: 12.2 ± 6.1a per trap

COc1ccccc1C=CC=O [XIII, 2-methoxycinnamaldehyde]
Mean number of WCR adults per sticky trap (±standard deviation) after 24 hours ([2]; August 4 second year): 53.0 ± 14.7^c per sticky trap | Mean number of SCR adults per sticky trap (±standard deviation) after 24 hours ([3]; August 4 second year): 12.2 ± 9.9^b per sticky trap

CC(=O)C=Cc1ccccc1 [XVII, phenyl-3-butone-2-one ketone]
Mean number of WCR adults per sticky trap (±standard deviation) after 24 hours ([2]; September 11): 0.0 per sticky trap | Mean number of SCR adults per sticky trap (±standard deviation) after 24 hours ([3]; September 11): 5.0 ± 3.7^b per sticky trap

COc1ccc(CCN)cc1 [4-methoxyphenylethylamine]
Mean number of NCR per trap (± standard deviation) [1]: 24.2 ± 15.4a per trap

NCCCc1ccccc1 [phenylpropylamine]
Mean number of NCR per trap (± standard deviation) [1]: 131.5 ± 16.5c per trap

COc1ccc(CC#N)cc1 [VII, 4-methoxyphenyl acetonitrile]
Relative percent activity as compared with the highest mean in the column (WCR) ([2]; August 29): 78% | Mean number of WCR per sticky trap (±standard deviation) after 24 hours ([2]; August 29): 114.5 ± 83.4 per sticky trap | Relative percent activity as compared with the highest mean in the column (WCR) ([2]; July 30): 46% | Mean number of WCR per sticky trap (±standard deviation) after 24 hours ([2]; July 30): 37.5 ± 8.4 per sticky trap

COc1ccc(C=CC#N)cc1 [IX, 4-methoxycinnamonitrile]
Mean number of WCR adults per sticky trap (±standard deviation) after 24 hours ([2]; August 4 second year): 196.0 ± 145.3^de per sticky trap | Mean number of WCR adults per sticky trap (±standard deviation) after 24 hours ([2]; August 5 first year): 59.0 ± 32.1^d per sticky trap | Mean number of SCR adults per sticky trap (±standard deviation) after 24 hours ([3]; August 4 second year): 4.0 ± 2.2^ab per sticky trap | Mean number of SCR adults per sticky trap (±standard deviation) after 24 hours ([3]; August 5 first year): 6.5 ± 3.0^a per sticky trap

NCc1ccccc1 [benzylamine]
Mean number of NCR per trap (± standard deviation) [1]: 57.5 ± 29.6b* per trap

C=Cc1ccc(OC)cc1 [III, 4-methoxy-1-vinyl benzene]
Relative percent activity as compared with the highest mean in the column (WCR) ([2]; August 29): 15% | Mean number of WCR per sticky trap (±standard deviation) after 24 hours ([2]; August 29): 21.5 ± 6.5 per sticky trap | Relative percent activity as compared with the highest mean in the column (WCR) ([2]; July 30): 40% | Mean number of WCR per sticky trap (±standard deviation) after 24 hours ([2]; July 30): 32.2 ± 13.5 per sticky trap

COCc1ccc(OC)cc1 [V, 4-methoxy benzyl methyl ether]
Relative percent activity as compared with the highest mean in the column (WCR) ([2]; August 29): 32% | Mean number of WCR per sticky trap (±standard deviation) after 24 hours ([2]; August 29): 46.7 ± 29.6 per sticky trap | Relative percent activity as compared with the highest mean in the column (WCR) ([2]; July 30): 46% | Mean number of WCR per sticky trap (±standard deviation) after 24 hours ([2]; July 30): 37.7 ± 23.4 per sticky trap

COc1ccc(C=CC(C)=O)cc1 [XVI, 4-(4′-methoxyphenyl)-3-butene-2-one]
Mean number of WCR adults per sticky trap (±standard deviation) after 24 hours ([2]; September 11): 2.0 ± 3.7^a per sticky trap | Mean number of SCR adults per sticky trap (±standard deviation) after 24 hours ([3]; September 11): 1.0 ± 0.8^a per sticky trap

CC=Cc1cccc(OC)c1 [II, 4-methoxy-2-propenylbenzene]
Relative percent activity as compared with the highest mean in the column (WCR) ([2]; July 30): 58% | Mean number of WCR per sticky trap (±standard deviation) after 24 hours ([2]; July 30): 48.0 ± 23.3 per sticky trap | Mean number of WCR per trap (±standard deviation) [4, 6]: 9.0 ± 4.3 per trap | relative percent activity of the mean WCR trap catch as compared with the highest mean value in the column ([4]; mixture 20 mg each component): 100% | Mean number of SCR per trap (±standard deviation) [5, 6]: 1.5 ± 1.0 per trap | relative percent activity of the mean SCR trap catch as compared with the highest mean value in the column ([5]; mixture 20 mg each component): 7%

CCCc1ccc(OC)cc1 [IV, 4-methoxy-1-propylbenzene]
Relative percent activity as compared with the highest mean in the column (WCR) ([2]; July 30): 37% | Mean number of WCR per sticky trap (±standard deviation) after 24 hours ([2]; July 30): 30.5 ± 11.0 per sticky trap
